Experimental data taken from patent publication US20240190910A1, “HEMI-CITRATE SALTS OF GABA-A POSITIVE […] AND CRYSTALLINE FORM THEREOF” (priority 2021, published 2024).
“And” between values parts separate entries of the source, which are not always exact repeats. Equal values may be shown once. Where a name gives a salt, the structure may show the parent alone. Read-outs that look alike come from different tables or passages of the source.

Tests used:
Assay type in all cases: physicochemical
[1] = Compaction characterization by Heckel analysis (yield pressure, strain rate sensitivity, crushing strength); conditions: for Yield pressure Fast (300 mm/s) / Yield pressure Slow (0.1 mm/s): summary of runs (± spread); for Strain rate sensitivity: yield pressure at 300 mm/s compared to 0.1 mm/s
Protocol: The aim of the Heckel test is to compress the material under controlled conditions to derive the yield pressure of the bulk material. A known weight of material is compressed within a 10 mm diameter die with flat faced punches moving at a set speed. The force on the punch is accurately measured at frequent intervals whilst the displacement of the punches is used to calculate the volume of the powder. The yield pressure is calculated at slow and fast punch speeds to assess the time-dependent component to deformation of the material.
A known weight of pure drug is compacted to theoretical zero porosity using 10 mm diameter flat faced punches. The Compaction Simulator was used under the following conditions:
During compression the location of the punch tips are accurately determined, and the force measured by load cells producing a record of the primary compression parameters. Temperature and humidity were monitored at intervals during the test.
The data were analyzed by the Compaction Analysis software program to generate values for yield pressure (Py) using the Heckel equation:
where • D=the relative density of the compact; • P=Pressure applied; and • K=Gradient of the line in the linear region; [Reference: R. W. Heckel. Trans. Metall. Soc. AIME 221 (1961)1001-1008].
For some materials, the deformation characteristics change with rate of applied force. This can be estimated by calculating the Strain Rate Sensitivity. The yield pressure at high speed compression is compared to that at slow speed using the following equation: […]

[2] = True density by helium pycnometry
Protocol: The equipment used was a Micromeritics AccuPyc II 1340, and the test parameters are set forth below. Testing was performed in duplicate (assuming target <2% variability achieved).
The true density of the material was determined by Helium Pycnometry.
The equipment used in this study was a Micromeritics AccuPyc II 1340, and the test parameters are the same as described in Example 10. The testing was performed in duplicate (assuming target <2% variability achieved).

[3] = Gelation experiments in aqueous media; conditions: for concentration at which rapidly gelled: 0.1 N HCl media; for gelation in water or pH 7.4 buffer: 0.5-10 mg/mL
Protocol: To confirm these findings, controlled experiments were conducted where the free base, mono-citrate, and hemi-citrate salts of Compound 1 were dissolved in aqueous media at concentrations between 0.5 mg/mL and 10 mg/mL. The dissolution experiments were performed in either 0.1 N HCl, water, or pH 7.4 buffer as aqueous media.

[4] = Tablet dissolution: percent release of Compound 1 from acidified tablet formulation
Protocol: FIG. 13 is a graph showing percent release of Compound 1 over time for an acidified tablet formulation containing Compound 1 hemi-citrate salt Form I. Tablets were used initially or maintained at 40° C./75% RH for 2 weeks, 1 month, or 2 months.
FIG. 14 is a graph showing percent release of Compound 1 over time for an acidified tablet formulation containing Compound 1 mono-citrate salt (Form A). Tablets were used initially or stored at 40° C./75% RH for 2 weeks, 1 month, or 2 months.

[5] = Tablet chemical stability: C17 epimer generation on storage at 40° C./75% RH; conditions: tablet dosage form, sealed bottle, 1 or 2 months, compared with mono-citrate salt
Protocol: FIG. 12 is a graph comparing the amount of the C17 epimer, a degradation product of Compound 1, over time for a tablet formulation containing Compound 1 hemi-citrate salt (Form I; left column in both “1 month” and “2 months”) or Compound 1 mono-citrate salt (Form A; right column in both “1 month” and “2 months”) in sealed bottles stored at 40° C./75% RH).

[6] = Dynamic vapor sorption (DVS) hygroscopicity
Protocol: DVS was measured via a SMS (Surface Measurement System) DVS Intrinsic. Parameters for DVS data collection were as follows:
A second endotherm (having an onset at 121.5° C.) associated with melting of the dehydrated phase (ΔH: 15.20 J/g) was followed by a rapid decomposition as temperature continued to increase (FIG. 3). Because of the low onset of dehydration, the DVS was measured at both room temperature and at 40° C. to predict the stability of the crystalline phase at 40° C. […] A 1.5% weight loss was observed between 95% and 20% RH, and a 2.9% weight loss was observed between 20% and 0% RH, for a total loss of […] across the entire cycle. […] After measuring the hygroscopicity by DVS, an XRPD pattern was collected for comparison to the original material and found to correspond well to the pattern of the room temperature sample post-DVS temperature cycle (FIG. 6).

[7] = fast speed 300 mm/s, individual runs, 21.7° C./38.9% RH
[8] = slow speed 0.1 mm/s, individual runs, 21.6° C./37.1% RH

COC[C@@]1(O)CC[C@@]2(C)[C@@H](CC[C@@H]3[C@@H]2CC[C@]2(C)[C@@H](C(=O)Cn4ccnc4)CC[C@@H]32)C1.O=C(O)CC(O)(CC(=O)O)C(=O)O [Compound 1 mono-citrate salt Form A]
Compact observations [1, 7]: Laminated
Compact strength [1, 7]: 9.75 Kiloponds and 12.38 Kiloponds and 5.09 Kiloponds
Ejection Force [1, 7]: 0.740 kN and 0.649 kN and 0.719 kN
Peak Force of Upper punch [1, 7]: 14.137 kN and 14.545 kN and 14.488 kN
Yield Pressure [1, 7]: 105.169 MPa and 111.204 MPa and 110.483 MPa
Compact observations [1, 8]: Ok
Compact strength [1, 8]: 15.99 Kiloponds and 17.94 Kiloponds and 15.97 Kiloponds and 16.04 Kiloponds
Ejection Force [1, 8]: 0.603 kN and 0.426 kN and 0.518 kN and 0.462 kN
Peak Force of Upper punch [1, 8]: 18.227 kN and 22.470 kN and 20.499 kN and 22.020 kN
Yield Pressure [1, 8]: 70.114 MPa and 92.323 MPa and 85.677 MPa and 90.406 MPa
Yield pressure Fast (300 mm/s) ([1]; fast speed 300 mm/s): 108.95 MPa (±3.30)
Yield pressure Slow (0.1 mm/s) ([1]; slow speed 0.1 mm/s): 84.63 MPa (±10.07)
Strain rate sensitivity [1]: 28.7%
true density mean [2]: 1.2666 g/mL

COC[C@@]1(O)CC[C@@]2(C)[C@@H](CC[C@@H]3[C@@H]2CC[C@]2(C)[C@@H](C(=O)Cn4ccnc4)CC[C@@H]32)C1 [Compound 1, 3α-hydroxy-3β-methoxymethyl-21-(1′-imidazolyl)-5α-pregnan-20-one]
concentration at which rapidly gelled [3]: 1000 µg/mL
gelation in water or pH 7.4 buffer [3]: did not gel

COC[C@@]1(O)CC[C@@]2(C)[C@@H](CC[C@@H]3[C@@H]2CC[C@]2(C)[C@@H](C(=O)Cn4ccnc4)CC[C@@H]32)C1.O=C(O)CC(O)(CC(=O)O)C(=O)O [Compound 1 mono-citrate salt]
concentration at which rapidly gelled [3]: 5000 µg/mL
gelation in water or pH 7.4 buffer [3]: did not gel

COC[C@@]1(O)CC[C@@]2(C)[C@@H](CC[C@@H]3[C@@H]2CC[C@]2(C)[C@@H](C(=O)Cn4ccnc4)CC[C@@H]32)C1 [Compound 1 hemi-citrate salt]
gelation in aqueous media ([3]; 0.1 N HCl, water, or pH 7.4 buffer, concentrations up to 10 mg/mL): did not gel
susceptibility to dissolution slow-down of the tablet ([4]; compared with Compound 1 mono-citrate salt): less susceptible
release of Compound 1 from an acidified formulation over time ([4]; initial and tablet stored in open dish at 40° C./75% RH for 2 weeks, 1 month, 2 months, compared with mono-citrate salt): greater
degradation product (C17-epimer) generated [5]: less degradation product

COC[C@@]1(O)CC[C@@]2(C)[C@@H](CC[C@@H]3[C@@H]2CC[C@]2(C)[C@@H](C(=O)Cn4ccnc4)CC[C@@H]32)C1 [Compound 1 hemi-citrate salt Form I]
Compact observations [1]: Ok and Chipped and Capped
Ejection Force [1]: 0.416 kN and 0.445 kN and 0.479 kN and 0.747 kN and 0.736 kN and 0.745 kN
Peak Force of Upper punch [1]: 20.607 kN and 21.683 kN and 19.936 kN and 14.028 kN and 13.909 kN and 14.571 kN
Yield Pressure [1]: 67.480 MPa and 73.595 MPa and 67.397 MPa and 83.127 MPa and 80.626 MPa and 89.401 MPa
Yield pressure Fast (300 mm/s) ([1]; fast speed 300 mm/s): 84.38 MPa (±4.52)
Yield pressure Slow (0.1 mm/s) ([1]; slow speed 0.1 mm/s): 69.49 MPa (±3.55)
Strain rate sensitivity [1]: 21.4%
true density mean [2]: 1.2621 g/mL
total loss (DVS) ([6]; 40° C.): 5.4%
water absorption from 20% to 80% RH (DVS) ([6]; 40° C.): 1.8%
water lost between 95% and 20% RH (DVS) ([6]; 40° C.): 2.2%
water lost from 20% to 0% RH (DVS) ([6]; 40° C.): 3.2%
hygroscopicity ([6]; DVS at room temperature and 40° C.): slightly hygroscopic
total loss across the entire cycle (DVS) ([6]; room temperature): 4.3%
water uptake between 20% and 80% RH (DVS) ([6]; room temperature): 1.2%
weight loss between 20% and 0% RH (DVS) ([6]; room temperature): 2.9%
weight loss between 95% and 20% RH (DVS) ([6]; room temperature): 1.5%
